A word on the IC50: it is the midpoint of a concentration-inhibition curve. Usually inhibition stands for the change of the read-out against control, counted positive when it falls.

Here are results for 24 compounds from patent publication US10144742B2 (Millennium Pharmaceuticals, Inc., priority 2014, dated 2018).

One experiment addresses hNAMPT protein (Homo sapiens (Human), UniProt P43490). Kind of experiment: NAMPT enzyme assay (TR-FRET/HTRF, BodiPY ligand, anti 6His-Tb). As to conditions: for IC50: NAMPT IC50 range class, read-out: IC50; for inhibition at 1 µM: compound concentration 1 μM, read-out: Percent Inhibition. The class given is binding. A digest of the protocol: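 Compound or DMSO was incubated for 1 h at room temperature, protected from light, with BodiPY ligand and hNAMPT labelled by terbium anti-6His antibody. The 520 nm to 486 nm emission ratio after 320 nm excitation gave inhibition versus vehicle, from which concentration-response curves yielded IC50.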

Another experiment relates to PC3 cells. Briefly: PC3 growth inhibition (Cell-titer glo, 72 hours). The class given is cell-based. Particulars: Homo sapiens, PC-3; compound concentration 1.667 μM; PC3 cells, 72 hours, Cell-titer glo; read-out: Percent Inhibition (PC3 growth inhibition). A digest of the protocol:
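Compounds in AIM serum-free medium were applied for 72 h at 37 °C, 5% CO2 to PC3 cells plated overnight from RPMI1640 culture. Luminescence after 10 min CellTiter-Glo, normalised to DMSO, gave % viability at 1 μM or 1.667 μM, or GI50/LD50.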

hNAMPT protein, sequence (P43490 whole entry): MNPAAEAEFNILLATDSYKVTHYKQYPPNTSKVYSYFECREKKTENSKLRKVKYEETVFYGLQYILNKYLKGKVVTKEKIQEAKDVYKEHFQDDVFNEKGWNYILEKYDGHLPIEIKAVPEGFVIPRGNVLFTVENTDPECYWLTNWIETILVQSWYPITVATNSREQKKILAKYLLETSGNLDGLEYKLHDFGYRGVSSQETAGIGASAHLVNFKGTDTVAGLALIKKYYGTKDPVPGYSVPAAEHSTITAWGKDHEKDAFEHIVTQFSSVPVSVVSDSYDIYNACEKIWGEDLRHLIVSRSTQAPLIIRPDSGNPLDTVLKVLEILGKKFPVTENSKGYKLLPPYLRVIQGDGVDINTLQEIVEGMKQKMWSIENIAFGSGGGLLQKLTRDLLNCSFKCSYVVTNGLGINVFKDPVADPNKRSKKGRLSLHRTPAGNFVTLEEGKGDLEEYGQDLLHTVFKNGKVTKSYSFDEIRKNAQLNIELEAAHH

Take `COc1cc(-c2nc3cc(C(=O)NCc4ccc5nccn5c4)ccc3nc2OC(C)C)c(F)cn1` [Compound I-317, 3-(5-fluoro-2-methoxypyridin-4-yl)-N-(imidazo[1,2-a]pyridin-6-ylmethyl)-2-isopropoxyquinoxaline-6-carboxamide]: on hNAMPT protein, the 50% inhibitory concentration (IC50) lay in the range of 100 to 500 nM and the inhibition at 1 µM turned out to be 66%. Further, in the experiment on PC3 cells, the inhibition at 1.667 µM is 1%.

As for `O=C(NCCCc1ncc[nH]1)c1ccc2nc(OC3COC3)c(-c3ccc(Cl)cc3)nc2c1` [Compound I-318, 3-(4-chlorophenyl)-N-[3-(1H-imidazol-2-yl)propyl]-2-(oxetan-3-yloxy)quinoxaline-6-carboxamide], at hNAMPT protein, the IC50 was below 100 nM and the inhibition at 1 µM stood at 97%. In addition, the inhibition at 1.667 µM in the experiment on PC3 cells is 2%.

Take `O=C(NCCCc1ncc[nH]1)c1ccc2nc(-c3ccc(F)cc3)c(-c3cc(F)ccc3F)nc2c1` [Compound I-319, 3-(2,5-difluorophenyl)-2-(4-fluorophenyl)-N-[3-(1H-imidazol-2-yl)propyl]quinoxaline-6-carboxamide]: on hNAMPT protein, the concentration for half-maximal inhibition (IC50) was below 100 nM and the inhibition at 1 µM amounted to 94%. Moreover, the inhibition at 1.667 µM with PC3 cells was 3%.

Take `O=C(NCCCc1ncc[nH]1)c1ccc2nc(-c3ccc(F)cc3)c(-c3ccc4c(c3)OCCO4)nc2c1` [Compound I-320, 3-(2,3-dihydro-1,4-benzodioxin-6-yl)-2-(4-fluorophenyl)-N-[3-(1H-imidazol-2-yl)propyl]quinoxaline-6-carboxamide]: at hNAMPT protein, the half-inhibitory concentration (IC50) was in the range of 500 to 1000 nM and the inhibition at 1 µM was found to be 63%. In the experiment on PC3 cells, the inhibition at 1.667 µM is 3%.

As to `Cn1cc(CCOc2nc3ccc(C(=O)NCCCc4ncc[nH]4)cc3nc2-c2ccc(F)cc2)cn1` [Compound I-321, 3-(4-fluorophenyl)-N-[3-(1H-imidazol-2-yl)propyl]-2-[2-(1-methyl-1H-pyrazol-4-yl)ethoxy]quinoxaline-6-carboxamide], on hNAMPT protein, the IC50 is below 100 nM and the inhibition at 1 µM was above 99%. For the same compound, the inhibition at 1.667 µM with PC3 cells came out at 2%.

On to `O=C(NCCCc1ncc[nH]1)c1ccc2nc(OCCO)c(-c3ccc(F)cc3)nc2c1` [Compound I-322, 3-(4-fluorophenyl)-2-(2-hydroxyethoxy)-N-[3-(1H-imidazol-2-yl)propyl]quinoxaline-6-carboxamide], for which, at hNAMPT protein, the IC50 was below 100 nM and the inhibition at 1 µM stood at 96%. Moreover, in the experiment with PC3 cells, the inhibition at 1.667 µM was determined as 2%.

On to `O=C(NCCCc1ncc[nH]1)c1ccc2nc(OCC3CCCCO3)c(-c3ccc(F)cc3)nc2c1` (stereo not drawn) [Compound I-323, 3-(4-fluorophenyl)-N-[3-(1H-imidazol-2-yl)propyl]-2-(tetrahydro-2H-pyran-2-ylmethoxy)quinoxaline-6-carboxamide], for which, at hNAMPT protein, the half-maximal inhibitory concentration (IC50) is below 100 nM and the inhibition at 1 µM is 99%. For the same compound, the inhibition at 1.667 µM in the experiment on PC3 cells was found to be 3%.

As to `O=C(NCCCc1ncc[nH]1)c1ccc2nc(-n3ccnc3)c(-c3ccc(F)cc3)nc2c1` [Compound I-324, 3-(4-fluorophenyl)-2-(1H-imidazol-1-yl)-N-[3-(1H-imidazol-2-yl)propyl]quinoxaline-6-carboxamide], at hNAMPT protein, the IC50 lay in the range of 500 to 1000 nM and the inhibition at 1 µM worked out at 57%. Moreover, the inhibition at 1.667 µM in the experiment on PC3 cells was 3%.

As for `O=C(NCCCc1ncc[nH]1)c1ccc2nc(-c3ccc(F)cc3)c(-c3cncs3)nc2c1` [Compound I-325, 2-(4-fluorophenyl)-N-[3-(1H-imidazol-2-yl)propyl]-3-(1,3-thiazol-5-yl)quinoxaline-6-carboxamide], at hNAMPT protein, the half-maximal inhibitory concentration (IC50) was below 100 nM and the inhibition at 1 µM was above 99%. In addition, the inhibition at 1.667 µM in the experiment on PC3 cells turned out to be 4%.

Take `O=C(NCCCc1ncc[nH]1)c1ccc2nc(OCc3ccsc3)c(-c3ccc(F)cc3)nc2c1` [Compound I-326, 3-(4-fluorophenyl)-N-[3-(1H-imidazol-2-yl)propyl]-2-(3-thienylmethoxy)quinoxaline-6-carboxamide]: on hNAMPT protein, the concentration for half-maximal inhibition (IC50) is below 100 nM and the inhibition at 1 µM was 92%. For the same compound, in the experiment with PC3 cells, the inhibition at 1.667 µM stood at 3%.

Consider `CN1CCC(COc2nc3ccc(C(=O)NCCCc4ncc[nH]4)cc3nc2-c2ccc(F)cc2)CC1` [Compound I-327, 3-(4-fluorophenyl)-N-[3-(1H-imidazol-2-yl)propyl]-2-[(1-methylpiperidin-4-yl)methoxy]quinoxaline-6-carboxamide], for which, on hNAMPT protein, the IC50 is below 100 nM and the inhibition at 1 µM was above 99%. Besides, the inhibition at 1.667 µM with PC3 cells was determined as 2%.

As to `O=C(NCCCc1ncc[nH]1)c1ccc2nc(-c3ccc(F)cc3)c(-c3cccc(C(F)(F)F)c3)nc2c1` [Compound I-328, 2-(4-fluorophenyl)-N-[3-(1H-imidazol-2-yl)propyl]-3-[3-(trifluoromethyl)phenyl]quinoxaline-6-carboxamide], on hNAMPT protein, the IC50 fell in the range of 100 to 500 nM and the inhibition at 1 µM stood at 84%. Also, the inhibition at 1.667 µM in the experiment on PC3 cells came to 3%.

Regarding `O=C(NCCCc1ncc[nH]1)c1ccc2nc(OCC3CCC3)c(-c3ccc(F)cc3)nc2c1` [Compound I-329, 2-(cyclobutylmethoxy)-3-(4-fluorophenyl)-N-[3-(1H-imidazol-2-yl)propyl]quinoxaline-6-carboxamide], on hNAMPT protein, the IC50 was below 100 nM and the inhibition at 1 µM is 95%. In addition, in the experiment with PC3 cells, the inhibition at 1.667 µM is 3%.

As to `O=C(NCCCc1ncc[nH]1)c1ccc2nc(-n3nccn3)c(-c3ccc(F)cc3)nc2c1` [Compound I-330, N-(3-(1H-imidazol-2-yl)propyl)-3-(4-fluorophenyl)-2-(2H-1,2,3-triazol-2-yl)quinoxaline-6-carboxamide], at hNAMPT protein, the half-maximal inhibitory concentration (IC50) lay in the range of 100 to 500 nM and the inhibition at 1 µM came out at 79%. The inhibition at 1.667 µM with PC3 cells is 3%.

Turning to `CNC1CC(Oc2nc3ccc(C(=O)NCCCc4ncc[nH]4)cc3nc2-c2ccc(F)cc2)C1` (stereo not drawn) [Compound I-331, 3-(4-fluorophenyl)-N-[3-(1H-imidazol-2-yl)propyl]-2-[3-(methylamino)cyclobutoxy]quinoxaline-6-carboxamide], at hNAMPT protein, the concentration for half-maximal inhibition (IC50) was below 100 nM and the inhibition at 1 µM is above 99%. Moreover, the inhibition at 1.667 µM in the experiment on PC3 cells turned out to be 2%.

`Cn1cc(COc2nc3ccc(C(=O)NCCCc4ncc[nH]4)cc3nc2-c2ccc(F)cc2)cn1` [Compound I-332, 3-(4-fluorophenyl)-N-[3-(1H-imidazol-2-yl)propyl]-2-[(1-methyl-1H-pyrazol-4-yl)methoxy]quinoxaline-6-carboxamide]: on hNAMPT protein, the concentration for half-maximal inhibition (IC50) was below 100 nM and the inhibition at 1 µM was above 99%. For the same compound, the inhibition at 1.667 µM in the experiment on PC3 cells turned out to be 34%.

Take `COc1cc(-c2nc3cc(C(=O)NCc4ccc5nccn5c4)ccc3nc2-c2ccc(F)cc2)c(F)cn1` [Compound I-333, 3-(5-fluoro-2-methoxypyridin-4-yl)-2-(4-fluorophenyl)-N-(imidazo[1,2-a]pyridin-6-ylmethyl)quinoxaline-6-carboxamide]: on hNAMPT protein, the IC50 fell in the range of 100 to 500 nM and the inhibition at 1 µM came to 63%. For the same compound, in the experiment with PC3 cells, the inhibition at 1.667 µM is 0%.

Turning to `CC(C)Oc1nc2ccc(C(=O)NCCCc3ncc[nH]3)cc2nc1-c1ccc(Cl)s1` [Compound I-334, 3-(5-chloro-2-thienyl)-N-[3-(1H-imidazol-2-yl)propyl]-2-isopropoxyquinoxaline-6-carboxamide], at hNAMPT protein, the IC50 was below 100 nM and the inhibition at 1 µM is above 99%. In the experiment on PC3 cells, the inhibition at 1.667 µM worked out at 1%.

On to `Cc1cc(C)cc(-c2nc3cc(C(=O)NCCCc4ncc[nH]4)ccc3nc2-c2ccc(F)cc2)c1` [Compound I-335, 3-(3,5-dimethylphenyl)-2-(4-fluorophenyl)-N-[3-(1H-imidazol-2-yl)propyl]quinoxaline-6-carboxamide], for which, on hNAMPT protein, the IC50 is 100 to 500 nM and the inhibition at 1 µM is 85%. Further, the inhibition at 1.667 µM in the experiment on PC3 cells worked out at 2%.

Regarding `Cc1ccc(F)cc1-c1nc2cc(C(=O)NCCCc3ncc[nH]3)ccc2nc1-c1ccc(F)cc1` [Compound I-336, 3-(5-fluoro-2-methylphenyl)-2-(4-fluorophenyl)-N-[3-(1H-imidazol-2-yl)propyl]quinoxaline-6-carboxamide], on hNAMPT protein, the IC50 is 100 to 500 nM and the inhibition at 1 µM was found to be 88%. In addition, the inhibition at 1.667 µM in the experiment with PC3 cells came to 1%.

With `O=C(NCCCc1ncc[nH]1)c1ccc2nc(-c3ccc(F)cc3)c(-c3cc(F)c(F)cc3F)nc2c1` [Compound I-337, 2-(4-fluorophenyl)-N-[3-(1H-imidazol-2-yl)propyl]-3-(2,4,5-trifluorophenyl)quinoxaline-6-carboxamide], at hNAMPT protein, the 50% inhibitory concentration (IC50) was 100 to 500 nM and the inhibition at 1 µM was 88%. In addition, the inhibition at 1.667 µM in the experiment on PC3 cells was 3%.

Regarding `CO[C@H]1C[C@H](Oc2nc3ccc(C(=O)NCCCc4ncc[nH]4)cc3nc2-c2ccc(F)cc2)C1` [Compound I-338, 3-(4-fluorophenyl)-N-[3-(1H-imidazol-2-yl)propyl]-2-[(trans-3-methoxycyclobutyl)oxy]quinoxaline-6-carboxamide], at hNAMPT protein, the half-maximal inhibitory concentration (IC50) is below 100 nM and the inhibition at 1 µM is above 99%. Besides, the inhibition at 1.667 µM with PC3 cells worked out at 1%.

Take `CC(C)Oc1nc2ccc(C(=O)NCCCc3ncc[nH]3)cc2nc1-c1ccc(F)c(F)c1` [Compound I-339, 3-(3,4-difluorophenyl)-N-[3-(1H-imidazol-2-yl)propyl]-2-isopropoxyquinoxaline-6-carboxamide]: at hNAMPT protein, the IC50 was below 100 nM and the inhibition at 1 µM worked out at 91%. In addition, the inhibition at 1.667 µM in the experiment with PC3 cells is 1%.

With `O=C(NCCCc1ncc[nH]1)c1ccc2nc(-c3ccc(F)cc3)c(-c3cccs3)nc2c1` [Compound I-340, 2-(4-Fluorophenyl)-N-[3-(1H-imidazol-2-yl)propyl]-3-(2-thienyl)quinoxaline-6-carboxamide], at hNAMPT protein, the concentration for half-maximal inhibition (IC50) is below 100 nM and the inhibition at 1 µM was above 99%. Also, the inhibition at 1.667 µM in the experiment on PC3 cells is 3%.
